Laboratory results reported in PMC7649969, “Pyrazolyl-pyrimidones inhibit the function of human solute carrier protein SLC11A2 (hDMT1) by metal chelation” (RSC Medicinal Chemistry, 2020).
pIC50: −log10 of the molar value. “Also recorded” adds a separate entry of the source.

Assays:
SLC39A8 (hZIP8) = target: T1, SLC39A8 (hZIP8) (Homo sapiens, UniProt Q9C0K1); experiment: 55Fe2+ uptake by HEK293T cells transiently transfected with hZIP8; type: cell-based; details: for inhibition of 55Fe2+ uptake by hZIP8: compound 10 μM, 55Fe2+ 1 μM, pH 7.4, HEK293T; for pIC50: HEK293T transiently transfected with hZIP8, 55Fe2+ 1 μM, pH 7.4
T1 construct: DsRED; expressed in transfected cells; host or cells: HEK293T (ATCC CRL-3216), transient transfection with Lipofectamine 2000
T1 sequence (Q9C0K1 23-460): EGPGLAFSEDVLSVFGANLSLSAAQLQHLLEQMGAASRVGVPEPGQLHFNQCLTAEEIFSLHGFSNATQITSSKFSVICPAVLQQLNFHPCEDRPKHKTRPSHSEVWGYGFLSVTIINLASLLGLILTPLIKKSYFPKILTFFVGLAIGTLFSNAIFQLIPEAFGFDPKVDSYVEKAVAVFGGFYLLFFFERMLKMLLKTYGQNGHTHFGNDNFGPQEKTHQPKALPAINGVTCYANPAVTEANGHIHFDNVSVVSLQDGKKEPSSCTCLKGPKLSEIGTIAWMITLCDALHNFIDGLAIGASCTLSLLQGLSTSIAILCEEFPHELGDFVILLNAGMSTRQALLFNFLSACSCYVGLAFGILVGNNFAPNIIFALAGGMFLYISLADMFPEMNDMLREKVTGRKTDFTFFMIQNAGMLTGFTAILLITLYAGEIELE
Text: (§1) Complex formation with Fe^2+ should result in non-selective inhibition of different metal transporters. To test this hypothesis, we investigated whether human SLC39A8 (hZIP8), a transporter of Zn^2+ and Fe^2+ unrelated to SLC11 family, might also be inhibited by our hDMT1 inhibitors. Both SLCs can be tested by inhibition of radioactive iron uptake into HEK293 cells expressing the transporter, at pH 5.5 for hDMT1 and at pH 7.4 for hZIP8.
(§2) Fig. 5 Cross reactivity of hDMT1 inhibitors over the functional activity of the divalent metal transporter hZIP8. (a) ^55Fe^2+ uptake (1 μM) by HEK293T cells (source: American Type Culture Collection, catalog no. CRL-3216) transiently transfected with the empty vector (Ev), hDMT1 or hZIP8. Uptake assay was performed at the optimal pH for the functional activity of each transporter (pH 5.5 and pH 7.4 respectively). The indicated compounds (10 μM) were pre-incubated for 5 min, and then, for 15 min with both compound and ^55Fe^2+. Measured ^55Fe^2+ was corrected by subtracting the background iron uptake measured in non-transfected cells. The data was normalized to the Fe^2+ uptake measured in the presence of DMSO (0.1%) and represented as mean ± SD (N = 5–16; obtained from 2 independent experiments). IC50 determination for pyrazolyl-pyrimidone 13 (b) and bipyridine (c) in HEK293T cells transiently transfected with hDMT1 (left panels) or hZIP8 (right panels). ^55Fe^2+ uptake (1 μM) was measured in the presence of the indicated compound concentration ranges, and the measurements were corrected by subtracting the background iron uptake measured in non-transfected cells. IC50 values were calculated by fitting the data to a sigmoidal 4-parameter equation. Representative experiments are depicted, while IC50 values were calculated as mean ± SD of 3 different experiments.
(§3) Chemicals and reagents were purchased from Merck, except where indicated otherwise.
(§4) Cell Culture. Cellular experiments where conducted either with a HEK293 cell line (ATCC) stably expressing DsRED-hDMT1 plasmid or HEK293T cells (ATCC) transiently transfected with DsRED-hZIP8 or DsRED-hDMT1 plasmids. The cell line stably expressing hDMT1 was generated as described in previous works1,2. In both cases, cells were cultured in Dulbecco´s modified Eagle´s medium (DMEM) supplemented with 10 % foetal bovine serum (FBS), 10 mM HEPES and 1 mM Na-pyruvate under standard cell culture conditions (37 °C, 95 % humidity and air containing 5 % CO2). When culturing the hDMT1 overexpressing cell line, to maintain stable the expression of the exogenous plasmid, culture media was also supplemented with […] geneticin (Life Technologies). […]
(§5) Radiolabelled iron uptake assay. Cells were seeded in clear bottom, white-well, poly-D-lysine coated 96-well plates (Corning). HEK293 cells stably over-expressing hDMT1 were seeded 24 hours before the experiment at a density of 50,000 cells/well. HEK293T cells were seeded at 30,000 cells/well 48 hours before the experiment, and 24 hours after were transfected […]
(§6) using Lipofectamine 2000 (Life technologies) as described in the manufacturer’s protocol.
(§7) Before the uptake assay, culture media was aspirated and the cells were washed with the uptake solution (140 mM NaCl, 2.5 mM KCl, 1 mM CaCl2, 1 mM MgCl2, 1.2 mM K2HPO4, 10 mM glucose, 5 mM HEPES, 5 mM MES, pH 7.4). To determine the iron uptake, the cells were incubated for 15 min at room temperature (RT) with uptake solution (pH 5.5) supplemented with 100 µM Ascorbic acid, and the indicated amount of non-radioactive Ferrous iron (Fe2+) and radiolabelled 55Fe2+ (American Radiolabelled) (0.5 µCi/mL). To stop the uptake process, the solution containing the radiotracer was removed and cells were washed with ice-cold uptake solution (pH 7.5). To determine the iron accumulated within the cells during the incubation time, the scintillation cocktail Mycrosinth 20 (PerkinElmer) was added to each well, and the cells were incubated during 1 hour at RT under constant agitation. […]

hDMT1 = target: T2, hDMT1 (Homo sapiens, UniProt P49281); experiment: 55Fe2+ uptake by HEK293T cells transiently transfected with hDMT1; type: cell-based; parameters: DsRED; expressed in transfected cells; host or cells: HEK293T (ATCC CRL-3216), transient transfection with Lipofectamine 2000; details: for inhibition of 55Fe2+ uptake by hDMT1: compound 10 μM, 55Fe2+ 1 μM, pH 5.5, HEK293T; for pIC50: HEK293T transiently transfected with hDMT1, 55Fe2+ 1 μM, pH 5.5
T2 sequence (P49281 1-568): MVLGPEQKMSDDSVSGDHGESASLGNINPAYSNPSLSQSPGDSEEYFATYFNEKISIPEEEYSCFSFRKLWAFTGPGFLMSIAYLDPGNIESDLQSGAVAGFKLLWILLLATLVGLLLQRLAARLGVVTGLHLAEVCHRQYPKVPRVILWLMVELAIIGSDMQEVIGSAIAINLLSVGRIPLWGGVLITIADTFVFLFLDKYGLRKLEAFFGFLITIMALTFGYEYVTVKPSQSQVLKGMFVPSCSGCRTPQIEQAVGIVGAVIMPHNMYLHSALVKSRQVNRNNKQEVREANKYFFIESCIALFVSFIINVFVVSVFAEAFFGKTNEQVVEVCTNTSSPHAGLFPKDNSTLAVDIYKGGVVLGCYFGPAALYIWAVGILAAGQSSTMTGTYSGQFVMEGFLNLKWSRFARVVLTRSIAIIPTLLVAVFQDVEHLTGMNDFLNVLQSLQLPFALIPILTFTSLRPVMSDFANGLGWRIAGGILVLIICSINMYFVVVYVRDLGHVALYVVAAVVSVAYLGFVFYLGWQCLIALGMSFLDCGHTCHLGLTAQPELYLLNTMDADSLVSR
Text: as §1, §2, §3, §4, §5, §6, §7

| Structure (SMILES) | inhibition of 55Fe2+ uptake by hZIP8 (SLC39A8 (hZIP8)) | inhibition of 55Fe2+ uptake by hDMT1 (hDMT1) | pIC50 (SLC39A8 (hZIP8)) | pIC50 (hDMT1) |
| --- | --- | --- | --- | --- |
| N=C(N)SCc1cccc2c1oc1c(CSC(=N)N)cccc12 [Compound 1, reference compound] | no measurable activity on hZIP8 | only inhibited hDMT1 | – | – |
| Cc1cc(=O)[nH]c(-n2nc3c(c2C)CCCC3)n1 [Compound 13] | inhibited both transporters; also recorded: cross-inhibition | inhibited both transporters | ~5.96 | ~5.96 |
| c1ccc(-c2ccccn2)nc1 [bipyridine] | inhibited both transporters | inhibited both transporters | ~5.19 | ~5.19 |

Second part, led by results:

| inhibition of 55Fe2+ uptake by hZIP8 (SLC39A8 (hZIP8)) | inhibition of 55Fe2+ uptake by hDMT1 (hDMT1) | Structure (SMILES) | pIC50 (SLC39A8 (hZIP8)) | pIC50 (hDMT1) |
| --- | --- | --- | --- | --- |
| inhibited both transporters | inhibited both transporters | Cc1cc(O)nc(-n2nc(C)cc2C)n1 [Compound 5] | – | – |
| inhibited both transporters | inhibited both transporters | Cc1nn(-c2ccccn2)c(O)c1C(=O)Nc1cccc(C(F)(F)F)c1 [Compound 3, reference compound] | – | – |
